Measurements reported in paper PMC2633172 (The FASEB Journal, 2009).
Bridge positions count the residues as written; N and C are the ends. Ends that are not written are not given here. * marks the point of attachment. Biotin = O=C1N[C@H]2[C@H](CS[C@H]2CCCCC(=O)*)N1

Experiments:
[1] = system: γ-IFN stimulated U937 cells; test: Inhibition of superoxide burst triggered by bead-peptide 33 complexes; assay type: cell-based, human; conditions: soluble peptide; submaximal concentration of bead-peptide 33 complexes
[2] = system: γ-IFN stimulated U937 cells; test: Phagocytosis of fluorescent bead complexes by flow cytometry; assay type: cell-based, human; conditions: FITC-labeled bead complexes
[3] = target: Human FcγRI extracellular domain (human, UniProt P12314 16-292); test: AlphaScreen or HTRF
Chain of Human FcγRI extracellular domain (P12314 16-292): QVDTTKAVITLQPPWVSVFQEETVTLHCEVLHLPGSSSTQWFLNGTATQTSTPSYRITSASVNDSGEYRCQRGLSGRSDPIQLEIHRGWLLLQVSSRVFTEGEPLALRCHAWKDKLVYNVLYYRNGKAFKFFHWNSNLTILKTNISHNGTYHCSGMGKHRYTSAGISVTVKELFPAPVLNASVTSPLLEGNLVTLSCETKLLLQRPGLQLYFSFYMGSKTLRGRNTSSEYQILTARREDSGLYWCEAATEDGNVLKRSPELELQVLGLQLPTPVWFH

Molecule: AQTDTSLMLPLLGSDEE [peptide 22 S4S13]
- ability to prevent receptor-mediated functions triggered by multimeric peptide 33 [1]: only weakly able or unable

Molecule: TDT C LMLPLLLG C DEE (disulfide) [peptide 22]
- internalized fluorescence relative to bead-IgG1 complexes ([2]; 2 h at 37°C, trypan blue quench, 10,000 cells): ≤ 2 fold
- bead-peptide signal intensity in the presence of IgG1 ([2]; with IgG1 (67 μM)): reduced to background

Molecule: H-AQKDPCTRWAMLLGCDGEK(Biotin) (disulfide 6-15 (inferred)) [cyclic peptide 30]
- binding result [3]: binds

Molecule: H-AQVNSCLLLPNLLGCGDDK(Biotin) (disulfide 6-15 (inferred)) [cyclic peptide 33]
- binding result [3]: binds
